From patent US20020137929A1, “1 - (3-heterocyclylphenyl) isothiourea, -isourea, -guanidine and -amidine herbicidal agents” (Intellectual Property Department, BASF Aktiengesellschaft, priority 1998, published 2002)

Assays:
ABUTH (Velvetleaf) = assay: Postemergence herbicidal evaluation; format: in vivo, Abutilon theophrasti; settings: for Herbicidal rating ABUTH: postemergence
Method in brief: (§1)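 Visual 0-9 injury score (stand, vigor, malformation, size, chlorosis, appearance vs untreated) taken four to five weeks post-spray, averaged across repeat tests. Test plants about two weeks old; foliar spray of acetone/water (1:1) with 0.5% surfactant delivering ~0.0156-0.500 kg active/ha.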

AMBEL (Ragweed, Common) = assay: Postemergence herbicidal evaluation; format: in vivo, Ambrosia artemisifolia; settings: for Herbicidal rating AMBEL: postemergence
Method in brief: as §1

ECHCG (Barnyardgrass) = assay: Postemergence herbicidal evaluation; format: in vivo, Echinochloa crus-galli; settings: for Herbicidal rating ECHCG: postemergence
Method in brief: as §1

SETVI (Foxtail, Green) = assay: Postemergence herbicidal evaluation; format: in vivo, Setaria viridis; settings: for Herbicidal rating SETVI: postemergence
Method in brief: as §1

[1] = system: GLXMAW (Soybean, Williams); assay: Postemergence herbicidal evaluation; format: in vivo, Glycine max, (L.) Merr. cv Williams; settings: for Herbicidal rating GLXMAW: postemergence
Method in brief: as §1

ORYSAT (Rice, Tebonnet) = assay: Postemergence herbicidal evaluation; format: in vivo, Oryza sativa, (L.) Tebonnet; settings: for Herbicidal rating ORYSAT: postemergence
Method in brief: as §1

[2] = system: TRZAWR (Wheat, Winter, cv Riband); assay: Postemergence herbicidal evaluation; format: in vivo, Triticum aestivum; settings: for Herbicidal rating TRZAWR: postemergence
Method in brief: as §1

MOOVA (Monochoria) = assay: Preemergence weed control under flooded paddy conditions; format: in vivo, Monochoria vaginalis; settings: rated 3-4 weeks after treatment
Method in brief: (§2)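 Greenhouse paddy assay. Acetone/water (50/50 v/v) solutions dosed into flood water, equivalent to about 0.0313 to 0.500 kg/ha active ingredient, over seeds planted 0.5 cm deep in silt loam. Score: 0-9 visual, based on stand, vigor, malformation, size and chlorosis, 3 to 4 weeks after treatment.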

[3] = system: SAGPY (Arrowhead (Pygmaea)); assay: as above; format: in vivo, Sagittaria pygmaea; settings: rated 3-4 weeks after treatment
Method in brief: as §2

CYPIR (Rice Flatsedge) = assay: Postemergence weed control under flooded paddy conditions; format: in vivo, Cyperus iria; settings: postemergence weeds
Method in brief: (§3)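 Containers holding 3–5 cm weeds and rice at 1.5–2.5 leaves are flooded to 1.5–3 cm above soil. Compound in 50/50 v/v aqueous/acetone is then added directly to the water, about 0.0313–0.500 kg/ha. Plants are kept in the greenhouse and rated 0–9 visually at 3–4 weeks.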

[4] = system: SAGPY (Arrowhead (Pygmaea)); assay: as above; format: in vivo, Sagittaria pygmaea; settings: postemergence weeds
Method in brief: as §3

[5] = Rate 0.0313 kg/ha, rated 3 to 4 weeks after treatment
[6] = Rate 0.0625 kg/ha, rated 3 to 4 weeks after treatment
[7] = Rate 0.1250 kg/ha, rated 3 to 4 weeks after treatment
[8] = Rate 0.2500 kg/ha, rated 3 to 4 weeks after treatment
[9] = Rate 0.5000 kg/ha, rated 3 to 4 weeks after treatment
[10] = rate 0.0313 kg/ha, 3-4 weeks after treatment
[11] = rate 0.0625 kg/ha, 3-4 weeks after treatment
[12] = rate 0.1250 kg/ha, 3-4 weeks after treatment
[13] = rate 0.2500 kg/ha, 3-4 weeks after treatment

C=CCN1C(=O)C(CC(=O)NS(=O)(=O)c2ccccc2)SC1=Nc1cc(-n2c(=O)cc(C(F)(F)F)n(C)c2=O)c(F)cc1Cl (stereo not drawn) [Compound 101, 3-Allyl-2-{{2-chloro-5-[3,6-dihydro-3-methyl-2,6-dioxo-4-(trifluoromethyl)-1(2H)-pyrimidinyl]-4-fluorophenyl}imino}-4-oxo-N-(phenylsulfonyl)-5-thiazolidineacetamide]
Herbicidal rating ABUTH (ABUTH (Velvetleaf); rate 0.0156 kg/ha): 3.0
Herbicidal rating ABUTH (ABUTH (Velvetleaf); rate 0.0313 kg/ha): 7.0
Herbicidal rating ABUTH (ABUTH (Velvetleaf); rate 0.0625 kg/ha): 9.0
Herbicidal rating ABUTH (ABUTH (Velvetleaf); rate 0.1250 kg/ha): 9.0
Herbicidal rating AMBEL (AMBEL (Ragweed, Common); rate 0.0156 kg/ha): 9.0
Herbicidal rating AMBEL (AMBEL (Ragweed, Common); rate 0.0313 kg/ha): 7.0
Herbicidal rating AMBEL (AMBEL (Ragweed, Common); rate 0.0625 kg/ha): 9.0
Herbicidal rating AMBEL (AMBEL (Ragweed, Common); rate 0.1250 kg/ha): 9.0
Herbicidal rating ECHCG (ECHCG (Barnyardgrass); rate 0.0156 kg/ha): 1.0
Herbicidal rating ECHCG (ECHCG (Barnyardgrass); rate 0.0313 kg/ha): 2.0
Herbicidal rating ECHCG (ECHCG (Barnyardgrass); rate 0.0625 kg/ha): 3.0
Herbicidal rating ECHCG (ECHCG (Barnyardgrass); rate 0.1250 kg/ha): 5.0
Herbicidal rating SETVI (SETVI (Foxtail, Green); rate 0.0156 kg/ha): 2.0
Herbicidal rating SETVI (SETVI (Foxtail, Green); rate 0.0313 kg/ha): 1.0
Herbicidal rating SETVI (SETVI (Foxtail, Green); rate 0.0625 kg/ha): 5.0
Herbicidal rating SETVI (SETVI (Foxtail, Green); rate 0.1250 kg/ha): 5.0
Herbicidal rating GLXMAW ([1]; rate 0.0156 kg/ha): 5.5
Herbicidal rating GLXMAW ([1]; rate 0.0313 kg/ha): 5.5
Herbicidal rating GLXMAW ([1]; rate 0.0625 kg/ha): 6.0
Herbicidal rating GLXMAW ([1]; rate 0.1250 kg/ha): 6.5
Herbicidal rating ORYSAT (ORYSAT (Rice, Tebonnet); rate 0.0156 kg/ha): 2.5
Herbicidal rating ORYSAT (ORYSAT (Rice, Tebonnet); rate 0.0313 kg/ha): 3.0
Herbicidal rating ORYSAT (ORYSAT (Rice, Tebonnet); rate 0.0625 kg/ha): 4.0
Herbicidal rating ORYSAT (ORYSAT (Rice, Tebonnet); rate 0.1250 kg/ha): 4.0
Herbicidal rating TRZAWR ([2]; rate 0.0156 kg/ha): 3.0
Herbicidal rating TRZAWR ([2]; rate 0.0313 kg/ha): 3.5
Herbicidal rating TRZAWR ([2]; rate 0.0625 kg/ha): 4.0
Herbicidal rating TRZAWR ([2]; rate 0.1250 kg/ha): 5.0
MOOVA herbicidal effect rating (MOOVA (Monochoria); 0.0313 kg/ha): 5.0
MOOVA herbicidal effect rating (MOOVA (Monochoria); 0.0625 kg/ha): 5.0
MOOVA herbicidal effect rating (MOOVA (Monochoria); 0.1250 kg/ha): 7.0
MOOVA herbicidal effect rating (MOOVA (Monochoria); 0.2500 kg/ha): 9.0
MOOVA herbicidal effect rating (MOOVA (Monochoria); 0.5000 kg/ha): 9.0
SAGPY herbicidal effect rating ([3]; 0.0313 kg/ha): 0.0
SAGPY herbicidal effect rating ([3]; 0.0625 kg/ha): 0.0
SAGPY herbicidal effect rating ([3]; 0.1250 kg/ha): 0.0
SAGPY herbicidal effect rating ([3]; 0.2500 kg/ha): 2.0
SAGPY herbicidal effect rating ([3]; 0.5000 kg/ha): 4.0
Herbicidal rating CYPIR (CYPIR (Rice Flatsedge); [5]): 0.0
Herbicidal rating CYPIR (CYPIR (Rice Flatsedge); [6]): 0.0
Herbicidal rating CYPIR (CYPIR (Rice Flatsedge); [7]): 0.0
Herbicidal rating CYPIR (CYPIR (Rice Flatsedge); [8]): 3.0
Herbicidal rating CYPIR (CYPIR (Rice Flatsedge); [9]): 4.0
Herbicidal rating SAGPY [4, 5]: 0.0
Herbicidal rating SAGPY [4, 6]: 0.0
Herbicidal rating SAGPY [4, 7]: 0.0
Herbicidal rating SAGPY [4, 8]: 2.0
Herbicidal rating SAGPY [4, 9]: 4.0

CCOC(=O)CN1C(=O)C(CC(=O)OC(C)C)SC1=Nc1cc(-n2c(=O)cc(C(F)(F)F)n(C)c2=O)c(F)cc1Cl (stereo not drawn) [Compound 55, 2-{{2-Chloro-5-[3,6-dihydro-3-methyl-2,6-dioxo-4-(trifluoromethyl)-1(2H)-pyrimidinyl]-4-fluoro-phenyl}imino}-4-oxo-3,5-thiazolidinediacetic acid, 3-ethyl isopropyl ester]
Postemergence herbicidal rating ABUTH (ABUTH (Velvetleaf); Rate 0.0158 kg/ha): 8.0
Postemergence herbicidal rating ABUTH (ABUTH (Velvetleaf); Rate 0.0313 kg/ha): 9.0
Postemergence herbicidal rating ABUTH (ABUTH (Velvetleaf); Rate 0.0625 kg/ha): 9.0
Postemergence herbicidal rating ABUTH (ABUTH (Velvetleaf); Rate 0.1250 kg/ha): 9.0
Postemergence herbicidal rating ABUTH (ABUTH (Velvetleaf); Rate 0.2500 kg/ha): 9.0
Postemergence herbicidal rating AMBEL (AMBEL (Ragweed, Common); Rate 0.0158 kg/ha): 9.0
Postemergence herbicidal rating AMBEL (AMBEL (Ragweed, Common); Rate 0.0313 kg/ha): 9.0
Postemergence herbicidal rating AMBEL (AMBEL (Ragweed, Common); Rate 0.0625 kg/ha): 9.0
Postemergence herbicidal rating AMBEL (AMBEL (Ragweed, Common); Rate 0.1250 kg/ha): 9.0
Postemergence herbicidal rating AMBEL (AMBEL (Ragweed, Common); Rate 0.2500 kg/ha): 9.0
Postemergence herbicidal rating ECHCG (ECHCG (Barnyardgrass); Rate 0.0158 kg/ha): 9.0
Postemergence herbicidal rating ECHCG (ECHCG (Barnyardgrass); Rate 0.0313 kg/ha): 9.0
Postemergence herbicidal rating ECHCG (ECHCG (Barnyardgrass); Rate 0.0625 kg/ha): 9.0
Postemergence herbicidal rating ECHCG (ECHCG (Barnyardgrass); Rate 0.1250 kg/ha): 9.0
Postemergence herbicidal rating ECHCG (ECHCG (Barnyardgrass); Rate 0.2500 kg/ha): 9.0
Postemergence herbicidal rating SETVI (SETVI (Foxtail, Green); Rate 0.0158 kg/ha): 9.0
Postemergence herbicidal rating SETVI (SETVI (Foxtail, Green); Rate 0.0313 kg/ha): 9.0
Postemergence herbicidal rating SETVI (SETVI (Foxtail, Green); Rate 0.0625 kg/ha): 9.0
Postemergence herbicidal rating SETVI (SETVI (Foxtail, Green); Rate 0.1250 kg/ha): 9.0
Postemergence herbicidal rating SETVI (SETVI (Foxtail, Green); Rate 0.2500 kg/ha): 9.0
Postemergence herbicidal rating GLXMAW ([1]; Rate 0.0158 kg/ha): 8.0
Postemergence herbicidal rating GLXMAW ([1]; Rate 0.0313 kg/ha): 8.2
Postemergence herbicidal rating GLXMAW ([1]; Rate 0.0625 kg/ha): 8.0
Postemergence herbicidal rating GLXMAW ([1]; Rate 0.1250 kg/ha): 8.3
Postemergence herbicidal rating GLXMAW ([1]; Rate 0.2500 kg/ha): 8.0
Postemergence herbicidal rating ORYSAT (ORYSAT (Rice, Tebonnet); Rate 0.0158 kg/ha): 2.5
Postemergence herbicidal rating ORYSAT (ORYSAT (Rice, Tebonnet); Rate 0.0313 kg/ha): 3.5
Postemergence herbicidal rating ORYSAT (ORYSAT (Rice, Tebonnet); Rate 0.0625 kg/ha): 4.2
Postemergence herbicidal rating ORYSAT (ORYSAT (Rice, Tebonnet); Rate 0.1250 kg/ha): 5.5
Postemergence herbicidal rating ORYSAT (ORYSAT (Rice, Tebonnet); Rate 0.2500 kg/ha): 6.5
Postemergence herbicidal rating TRZAWR ([2]; Rate 0.0158 kg/ha): 5.5
Postemergence herbicidal rating TRZAWR ([2]; Rate 0.0313 kg/ha): 6.8
Postemergence herbicidal rating TRZAWR ([2]; Rate 0.0625 kg/ha): 7.5
Postemergence herbicidal rating TRZAWR ([2]; Rate 0.1250 kg/ha): 7.5
Postemergence herbicidal rating TRZAWR ([2]; Rate 0.2500 kg/ha): 7.5
Herbicidal rating MOOVA (MOOVA (Monochoria); 0.0313 kg/ha): 9.0
Herbicidal rating MOOVA (MOOVA (Monochoria); 0.0625 kg/ha): 9.0
Herbicidal rating MOOVA (MOOVA (Monochoria); 0.1250 kg/ha): 9.0
Herbicidal rating MOOVA (MOOVA (Monochoria); 0.2500 kg/ha): 9.0
Herbicidal rating SAGPY ([3]; 0.0313 kg/ha): 0.0
Herbicidal rating SAGPY ([3]; 0.0625 kg/ha): 0.0
Herbicidal rating SAGPY ([3]; 0.1250 kg/ha): 0.0
Herbicidal rating SAGPY ([3]; 0.2500 kg/ha): 0.0
Herbicidal rating CYPIR (CYPIR (Rice Flatsedge); [10]): 9.0
Herbicidal rating CYPIR (CYPIR (Rice Flatsedge); [11]): 9.0
Herbicidal rating CYPIR (CYPIR (Rice Flatsedge); [12]): 9.0
Herbicidal rating CYPIR (CYPIR (Rice Flatsedge); [13]): 9.0
Herbicidal rating SAGPY [4, 10]: 0.0
Herbicidal rating SAGPY [4, 11]: 0.0
Herbicidal rating SAGPY [4, 12]: 0.0
Herbicidal rating SAGPY [4, 13]: 0.0
